{"source": "patent US20140227408A1", "about": "“MEAT TREATMENT AND PRESERVATION METHOD” (RED MEAT AS, priority 2011, published 2014)", "set-up_in_all_cases": "species or system cattle", "key": {"[1]": {"test": "Colour L*, a*, b* of treated ground beef, low oxygen packaging (Example 5)", "settings": "for L* / a* / b*: citrate High level (0.025 mol/kg), low oxygen, adjusted mean ± standard error", "description": "(§1) Beef M. semimembranosus (M.S.) and beef fat tissue were collected four days post mortem (Fatland A/S, Oslo, Norway). The packaging day is defined as day zero, however, the tissues were 4 days post mortem on packing day. A piece of meat from proximal end was cut from each muscle in order to measure oxygen consumption, pH and surface colour. Fat tissue from pigs fed rapeseed and vitamin E to enhance the content of polyunsaturated fatty acids were from HKScan (Ruokatalo, Finland). The fat tissue was transported vacuum-packaged and frozen. Samples of minced fat tissue were removed for fatty acid analysis.\n(§2) The beef muscles were cut into pieces of approximately 10×5 cm and mixed to 14% w/w fat by using the fat tissues. Beef fat and pork fat tissues were ground twice with either raw beef from four young (16-19 months) or four old (46-81 months) cattle. […] The ground meat was blended manually with solutions (all at pH 5.8) with various TCA and glycolytic ingredients (see below).\n(§3) To maintain pH at 5.8 the solutions were prepared by mixing the acid form and the corresponding sodium salt of these chemicals.\n[…] The solution was quickly and properly stirred into the minced meat and the blended system was subsequently packaged. […] Two reference samples with 40 ml of distilled water added to 360 gram of ground beef were also prepared each of the four production day, i.e. altogether 8 references were prepared. The samples were packaged in either low or high oxygen atmosphere.\n(§4) The ground beef was packaged in black amorphous polyethylene terephthalate (APET) trays that were sealed with ethylene vinyl alcohol (EVOH) top films. The trays and films (Wipak Multipet and Wipak Biaxer, both Wipak, Nastola, Finland) had oxygen transmission rates of 7 and 5 cm^3/m^2/24 h at 23° C. at 50% relative humidity. Packaging was carried out within 1 hour after grinding. The samples were stored in darkness at 4° C. for 8 days in a high-oxygen atmosphere (75% oxygen and 25% CO2) and for 13 days in a low-oxygen atmosphere (60% CO2 and 40% N2). These food grade gas mixtures were supplied by AGA (Oslo, Norway).\n(§5) The colour of the ground meat samples was measured with a Konica Minolta Chroma Meter CR 410 (Konica Minolta Sensing Inc., Osaka, Japan) using the glass light projection tube CR A 33e with wide illumination area (61 mm) and illuminant D65. The instrument was calibrated each day by measuring a white ceramic plate (L*=97.9; a*=0.05; b*=2). All colour measurements were made with 3 replicates (CIE, 1976, “Recommendations on uniform colour spaces-colour difference equations” (Vol. Supplement No. 2 to CIE). Paris, France: Commission Internationale de l'Eclairage).\n(§6) The colour of the samples packaged in high O2 was measured after 0, 1, 3, 6 and 8, days of storage from packaging day, while low O2 samples were measured at 0 to 13 days of storage using Minolta and reflectance measurements.\nThe experimental design is visualized in FIG. 5. A 2^2 design (animal age and type of fat tissue) was split over 4 experimental days (FIG. 5, and Tables 10 and 11). To each corner of this 2^2 design was added a 3 component (succinate, pyruvate and glutamate-malate additions; 0, 50 and 100%) simplex lattice mixture design with 2 additional centre experiments as shown in FIG. 5."}, "[2]": {"system": "myoglobin in ground beef", "test": "Myoglobin states (DMb, OMb, MMb) by reflectance spectra of treated ground beef, high oxygen packaging (Example 5)", "settings": "for DMb / MMb / OMb: citrate High level, high oxygen, adjusted mean ± standard error", "description": "as §1\nThe beef muscles were cut into pieces of approximately 10×5 cm and mixed to 14% w/w fat by using the fat tissues. Beef fat and pork fat tissues were ground twice with either raw beef from four young (16-19 months) or four old (46-81 months) cattle. The meat had pH of 5.65 and was ground with a Seydelmann ME-130 (Seydelmann, Stuttgart, Germany) grinder through a plate with 3 mm openings. The ground meat was blended manually with solutions (all at pH 5.8) with various TCA and glycolytic ingredients (see below).\nas §3\n(§7) 40 g of 0.1 M or 0.05 M solutions were added to ground beef-fat mixture (360 g) to a total weight of 400 g. The solution was quickly and properly stirred into the minced meat and the blended system was subsequently packaged. […] Two reference samples with 40 ml of distilled water added to 360 gram of ground beef were also prepared each of the four production day, i.e. altogether 8 references were prepared. The samples were packaged in either low or high oxygen atmosphere.\nas §4\n(§8) Samples were scanned, […], with a Foss NIRSystems OptiProbe™ 6500 Analyzer (Foss NIRSystems Inc., Maryland, USA) without opening of the package. The package was turned upside-down before measurements so that the meat would fall on the packaging film. The samples were scanned with three random placements of the probe on the package surface in order to increase the scanning area and reduce the measurement errors. Thirty-two scans for both reference and samples were acquired and averaged on each measured area. All measurements were performed at room temperature (approx. 20° C.) according to Khatri, et al. (Meat Sci. (2012) 91(3): 223-231). These spectra were used to predict OMb, MMb and DMb levels. Calibration was performed using comminuted meat with 10% w/w added water.\nas §6\nThe statistical analysis was performed according to the approach described by Langsrud et al. (J. Appl. Statist. (2007) 34:1275-1296) and implemented in the 50-50 MANOVA software (http://www.langsrud.com/stat/program.htm). This program handles mixture designs as generalized categorical variables (generalized ANOVA). When using this method one can always formulate equivalent models that use the individual mixture variables as ordinary (one degree of freedom) regression variables. Then one arbitrary mixture variable has to be omitted (slack variable). […]"}, "[3]": {"test": "Colour L*, a*, b* of treated ground beef, high oxygen packaging (Example 5)", "settings": "citrate High level", "description": "as §1, §2, §3, §7, §4, §5, §6\nThe experimental design is visualized in FIG. 5. A 2^2 design (animal age and type of fat tissue) was split over 4 experimental days (FIG. 5, and Tables 10 and 11). […] 5."}, "[4]": {"system": "myoglobin in ground beef", "test": "Myoglobin states (DMb, OMb, MMb) by reflectance spectra of treated ground beef, low oxygen packaging (Example 5)", "settings": "for DMb / MMb / OMb: citrate High level (0.025 mol/kg), low oxygen, adjusted mean ± standard error", "description": "as §1, §2, §3, §7, §4, §8, §6\nThe statistical analysis was performed according to the approach described by Langsrud et al. (J. Appl. Statist. (2007) 34:1275-1296) and implemented in the 50-50 MANOVA software (http://www.langsrud.com/stat/program.htm). This program handles mixture designs as generalized categorical variables (generalized ANOVA). When using this method one can always formulate equivalent models that use the individual mixture variables as ordinary (one degree of freedom) regression variables. Then one arbitrary mixture variable has to be omitted (slack variable)."}, "[5]": {"settings": "Day 1, adjusted mean ± standard error"}, "[6]": {"settings": "Day 3, adjusted mean ± standard error"}, "[7]": {"settings": "Day 6, adjusted mean ± standard error"}, "[8]": {"settings": "Day 8, adjusted mean ± standard error"}}, "note": "Marks after values point to notes of the source that are not given here.", "data": [{"smiles": "O=C(O)CC(O)C(=O)O", "note": "(racemic) [malate]", "values": [{"measurement": "effect on yellowness (b*), in words", "setting": "[1]; low oxygen packaging", "value": "nominally higher b* values"}]}, {"smiles": "O=C(O)CC(O)(CC(=O)O)C(=O)O", "note": "[Citrate]", "values": [{"measurement": "DMb", "setting": "[2]; Day 1", "value": "0.0 ± 0.0", "unit": "%"}, {"measurement": "MMb", "setting": "[2]; Day 1", "value": "6.6 ± 0.3", "unit": "%"}, {"measurement": "OMb", "setting": "[2]; Day 1", "value": "93.4 ± 0.6", "unit": "%"}, {"measurement": "DMb", "setting": "[2]; Day 3", "value": "0.0 ± 0.0", "unit": "%"}, {"measurement": "MMb", "setting": "[2]; Day 3", "value": "10.5 ± 0.6", "unit": "%"}, {"measurement": "OMb", "setting": "[2]; Day 3", "value": "89.5 ± 0.6", "unit": "%"}, {"measurement": "DMb", "setting": "[2]; Day 6", "value": "0.5 ± 0.3", "unit": "%"}, {"measurement": "MMb", "setting": "[2]; Day 6", "value": "20.4 ± 0.6", "unit": "%"}, {"measurement": "OMb", "setting": "[2]; Day 6", "value": "79.1 ± 0.7", "unit": "%"}, {"measurement": "DMb", "setting": "[2]; Day 8", "value": "0.6 ± 0.2", "unit": "%"}, {"measurement": "MMb", "setting": "[2]; Day 8", "value": "26.7 ± 0.7", "unit": "%"}, {"measurement": "OMb", "setting": "[2]; Day 8", "value": "72.7 ± 0.8", "unit": "%"}, {"measurement": "effect on myoglobin states (DMb, OMb, MMb), in words", "setting": "[2]; high oxygen packaging", "value": "nominal higher values for OMb"}, {"measurement": "L*", "setting": "[3]; [5]", "value": "34.2 ± 0.3"}, {"measurement": "a*", "setting": "[3]; [5]", "value": "13.0 ± 0.2*"}, {"measurement": "b*", "setting": "[3]; [5]", "value": "4.5 ± 0.1*"}, {"measurement": "L*", "setting": "[3]; [6]", "value": "33.6 ± 0.3*"}, {"measurement": "a*", "setting": "[3]; [6]", "value": "12.3 ± 0.2*"}, {"measurement": "b*", "setting": "[3]; [6]", "value": "4.4 ± 0.1*"}, {"measurement": "L*", "setting": "[3]; [7]", "value": "33.8 ± 0.3"}, {"measurement": "a*", "setting": "[3]; [7]", "value": "11.0 ± 0.3"}, {"measurement": "b*", "setting": "[3]; [7]", "value": "4.1 ± 0.2*"}, {"measurement": "L*", "setting": "[3]; [8]", "value": "33.9 ± 0.3"}, {"measurement": "a*", "setting": "[3]; [8]", "value": "10.3 ± 0.2"}, {"measurement": "b*", "setting": "[3]; [8]", "value": "4.0 ± 0.1*"}, {"measurement": "DMb", "setting": "[4]; Day 1", "value": "42.1 ± 3.3", "unit": "%"}, {"measurement": "MMb", "setting": "[4]; Day 1", "value": "50.2 ± 3.0", "unit": "%"}, {"measurement": "OMb", "setting": "[4]; Day 1", "value": "7.8 ± 0.4", "unit": "%"}, {"measurement": "DMb", "setting": "[4]; Day 3", "value": "55.5 ± 3.3", "unit": "%"}, {"measurement": "MMb", "setting": "[4]; Day 3", "value": "39.1 ± 3.1", "unit": "%"}, {"measurement": "OMb", "setting": "[4]; Day 3", "value": "5.5 ± 0.4", "unit": "%"}, {"measurement": "DMb", "setting": "[4]; Day 6", "value": "64.9 ± 3.1", "unit": "%"}, {"measurement": "OMb", "setting": "[4]; Day 6", "value": "3.7 ± 0.4", "unit": "%"}, {"measurement": "DMb", "setting": "[4]; Day 8", "value": "66.6 ± 3.1", "unit": "%"}, {"measurement": "OMb", "setting": "[4]; Day 8", "value": "4.1 ± 0.4", "unit": "%"}, {"measurement": "DMb", "setting": "[4]; Day 10", "value": "69.9 ± 3.0", "unit": "%"}, {"measurement": "MMb", "setting": "[4]; Day 10", "value": "26.3 ± 2.9", "unit": "%"}, {"measurement": "OMb", "setting": "[4]; Day 10", "value": "3.8 ± 0.3", "unit": "%"}, {"measurement": "DMb", "setting": "[4]; Day 13", "value": "72.3 ± 4.1", "unit": "%"}, {"measurement": "MMb", "setting": "[4]; Day 13", "value": "23.9 ± 3.8", "unit": "%"}, {"measurement": "OMb", "setting": "[4]; Day 13", "value": "3.8 ± 0.5", "unit": "%"}, {"measurement": "effect on myoglobin states (DMb, OMb, MMb), in words", "setting": "[4]; low oxygen packaging", "value": "increased OMb and MMb while the DMb was reduced"}, {"measurement": "L*", "setting": "[1]; Day 1", "value": "33.5 ± 0.3"}, {"measurement": "a*", "setting": "[1]; Day 1", "value": "6.6 ± +.3*"}, {"measurement": "b*", "setting": "[1]; Day 1", "value": "2.3 ± 0.2"}, {"measurement": "L*", "setting": "[1]; Day 3", "value": "33.0 ± 0.3"}, {"measurement": "a*", "setting": "[1]; Day 3", "value": "7.1 ± 0.2"}, {"measurement": "b*", "setting": "[1]; Day 3", "value": "2.3 ± 0.1*"}, {"measurement": "L*", "setting": "[1]; Day 6", "value": "33.3 ± 0.2*"}, {"measurement": "a*", "setting": "[1]; Day 6", "value": "7.5 ± 0.2"}, {"measurement": "b*", "setting": "[1]; Day 6", "value": "2.2 ± 0.1*"}, {"measurement": "L*", "setting": "[1]; Day 8", "value": "33.4 ± 0.2*"}, {"measurement": "a*", "setting": "[1]; Day 8", "value": "7.5 ± 0.2"}, {"measurement": "b*", "setting": "[1]; Day 8", "value": "2.1 ± 0.1*"}, {"measurement": "L*", "setting": "[1]; Day 10", "value": "33.4 ± 0.2*"}, {"measurement": "a*", "setting": "[1]; Day 10", "value": "7.6 ± 0.2"}, {"measurement": "b*", "setting": "[1]; Day 10", "value": "2.1 ± 0.1"}, {"measurement": "L*", "setting": "[1]; Day 13", "value": "33.2 ± 0.3*"}, {"measurement": "a*", "setting": "[1]; Day 13", "value": "7.6 ± 0.4"}, {"measurement": "b*", "setting": "[1]; Day 13", "value": "2.1 ± 0.2*"}]}]}
